Test results as given in patent publication US20240415808A1, “Dosage Regimen for Fexuprazan Injection Composition” (Daewoong Pharmaceutical Co., Ltd., priority 2021, published 2024).

System: indomethacin-induced bleeding gastric ulcer
Test: indomethacin-induced bleeding gastric ulcer model using male rats
Assay type: in vivo, rat
Details: 1 mg/kg single dose tail vein, mean ± SD
Method: In order to evaluate the efficacy of fexuprazan against bleeding gastric ulcers, an indomethacin-induced bleeding gastric ulcer model using male rats was used.
Specifically, the previously prepared 1-(5-(2,4-difluorophenyl)-1-((3-fluorophenyl)sulfonyl)-4-methoxy-1H-pyrrol-3-yl)-N-methylmethanamine (hereinafter referred to as ‘fexuprazan’) hydrochloride was dissolved in a solution containing 30 wt. % of polyethylene glycol (Polyethylene Glycol 400) polymer in physiological saline. The concentration was adjusted so that 0, 0.1, 0.5, 1, 2 mg/kg based on fexuprazan weight could be administered to each test animal in a liquid volume of 1 mL/kg, and then each test animal was administered through the tail vein as a single dose. In addition, 1 mg/kg of esomeprazole magnesium trihydrate, which is a positive control, based on esomeprazole weight was administered as a single dose through the tail vein in test animals. After 30 minutes, 80 mg/kg of indomethacin was orally administered as a single dose to each test animal to induce gastric bleeding and ulceration. An autopsy was performed 5 hours after administration of indomethacin, and the stomach was removed. Then, the ulcer index (%) was measured using an image program (Leica Application Suite V4), and gastric hemorrhage and erosion state were evaluated through histopathological examination.

COc1ccc2nc([S@@+]([O-])Cc3ncc(C)c(OC)c3C)[nH]c2c1 [Esomeprazole, esomeprazole magnesium trihydrate, reference compound]
Ulcer index (%) (30 min before indomethacin 80 mg/kg oral, autopsy 5 h): 6.1 ± 2.6 %
Gastric erosion state (histopathological examination): 2.0 ± 1.8
Gastric hemorrhage state (histopathological examination): 1.3 ± 1.6^
